Results reported in PMC7029871, “Development and validation of a sensitive LC-MS/MS method for the quantitation of IMB-YH-4py5-2H, an antituberculosis candidate, and its application to the pharmacokinetic study” (PLoS ONE, 2020).

Experiments:
[1] = test system: intracellular M. tuberculosis H37Rv; assay: Intracellular activity assay in infected macrophages; format: cell-based, Mycobacterium tuberculosis; conditions: three-day incubation, infected J744 macrophages, untreated 6.47±0.04
[2] = cited from earlier work
[3] = parameters: method as in PMID 26579477; conditions: oral administration of 200 mg/kg; cited from earlier work

NNC(=O)c1ccncc1 [Isoniazid, reference compound]
Log10CFU ([1]; 0.5 μg/mL): 4.60±0.05 Log10CFU
Log10CFU ([1]; 1 μg/mL): 3.57±0.06 Log10CFU
Log10CFU ([1]; 2 μg/mL): 4.01±0.14 Log10CFU

COC(=O)/C=C/C(=O)c1ccc(OC)cc1 [YH-8, (E)-Methyl-4-aryl-4-oxabut-2-enoate, reference compound]
solubility [2]: poor solubility
serum Cmax [3]: lower than 0.5 μg/mL
time until serum level decreased below the therapeutic range [3]: less than 1 hour
